Patent publication US12303501B2, “Lipophilic active oral film formulation and method of making the same” (INTELGENX CORP., priority 2018, dated 2025)

Test: viscosity of aqueous glycerol solutions (DV1 Viscometer)
Assay type: physicochemical
Settings: room temperature (23.5° C.), SC4-21 spindle
Description: Specifically, larger differences in the viscosity between the oil and the aqueous phases will hinder the emulsion formation and promote phase separation. The formulations disclosed herein thus preferably include viscosity modifying agents to increase the viscosity of the aqueous phase and improve the emulsion stability by diminishing the rise of the oil droplets to the surface. Table 3 contain examples of increasing the viscosity of an aqueous solution using glycerol/glycerine. Viscosity modifiers are added to the aqueous phase to increase the viscosity in and attempt to mitigate the difference in viscosity between the oil phase and the aqueous phases and thus promote emulsion stability.

OCC(O)CO [100%, glycerol]
Viscosity: 905.0 cP
